Experimental data: PMC8436411 (ACS Medicinal Chemistry Letters, 2021)
Converted amounts (≈) assume the structure as drawn. “And” between values parts separate entries of the source, which are not always exact repeats. Equal entries are not always repeated. Where two headings read alike, the source gives them in different places.

Tests used:
S. aureus (ATCC 29213) [1] = details: Table S3; ref 10 (SI); cited from earlier work
E. coli (ATCC 25922) [2] = details: Table S3; ref 10 (SI); cited from earlier work
E. coli D22 [3] = details: Table S3; mutation in the lpxC gene that increases membrane permeability; ref 10 (SI); cited from earlier work
[4] = system: E. coli N43 (CGSC no. 5583); details: Table S3; AcrA knockout strain; ref 10 (SI); cited from earlier work
MRSA (QA-11.7) [5] = details: Table S3; ref 10 (SI); cited from earlier work
[6] = system: Salmonella alachua RDK 030c (QA-1482/04); details: Table S3; ref 10 (SI); cited from earlier work
[7] = system: Pseudomonas aeruginosa RDK 184 (DSM 939); details: Table S3; ref 10 (SI); cited from earlier work
[8] = system: Streptococcus agalactiae RDK 047 (QA-990/02); details: Table S3; ref 10 (SI); cited from earlier work
S. aureus DNA gyrase = biological target: T1, S. aureus DNA gyrase (Staphylococcus aureus, UniProt P20831); assay: DNA gyrase supercoiling inhibition assay (S. aureus); type: biochemical; details: mean of two independent measurements ± SD
T1 construct: purchased Inspiralis (Norwich, UK)
Experimental: We synthesized and biologically evaluated ten new compounds. We determined their inhibitory activity, expressed as IC50 values, on both Gram-positive S. aureus and Gram-negative E. coli bacterial enzymes (DNA gyrase and topo IV), respectively. The in vitro antibacterial activity, expressed as minimum inhibitory concentration (MIC), was determined against broad spectrum of bacteria, including Gram-positive (Staphylococcus aureus, methicillin-resistant Staphylococcus aureus, Streptococcus agalactiae, and Enterococcus faecalis) and Gram-negative strains (Escherichia coli, Salmonella alachua, Pseudomonas aeruginosa, and Klebsiella pneumoniae), enriched with various MRSA strains resistant to various antibiotics as well as E. coli strains with increased membrane permeability and lack of efflux pump, as well. Furthermore, the selectivity of compounds for bacterial enzyme compared to the orthologous human topoisomerase IIα was also considered. The in vitro safety profile was determined by cytotoxicity assessment on human umbilical vein endothelial cell lines (HUVEC) and HepG2 liver cancer cell lines.
Determination of DNA gyrase and topoisomerase IV inhibitory activities
To determine the IC50 values of the compounds, a Gyrase Supercoiling High Throughput Plate assay kit and a TopoIV Relaxation High Throughput Plate assay kit, commercially available from Inspiralis (Norwich, UK), were used for S. aureus and E. coli. The assays were performed on black streptavidin-coated 96-well microtiter plates (Thermo Scientific Pierce, Norwich, UK) and the wells were first […]
BSA and 0.05% [v/v] Tween-20). Biotinylated oligonucleotide diluted with the wash buffer was then immobilized in each well and the excess was removed with the wash buffer. 1.5 U of the enzyme S. aureus or E. coli DNA gyrase (topoIV) was incubated together with 0.75 μg of relaxed (supercoiled) pNO1 plasmid as substrate in the presence of 3 μl inhibitor solution in 10% DMSO and 0.008% Tween-20 at 37°C for 30 min in a final reaction volume of 30 μl in the assay buffer (S. aureus DNA gyrase: 40 mM HEPES.KOH (pH 7.6), 10 mM magnesium acetate, 10 mM DTT, 2 mM ATP, 500 mM potassium glutamate and 0.05 mg/ml albumin; E. coli DNA gyrase: 35 mM Tris.HCl (pH 7.5), 24 […]
mg/ml albumin; S. aureus topo IV: 50 mM Tris.HCl (7.5), 5 mM MgCl 2, 5 mM DTT, 1.5 mM ATP, 350 mM potassium glutamate and 0.05 mg/ml albumin; E. coli topo IV: 40 mM HEPES.KOH (pH 7.6), 100 mM potassium glutamate, 10 mM magnesium acetate, 10 mM DTT, 1 mM ATP and 50 μg/ml albumin). The reaction was stopped by adding the TF buffer (50 mM NaOAc (pH 4.7), 50 mM NaCl and 50 mM MgCl2) to allow triplex formation (biotin oligonucleotide plasmid) for another 30 min. Finally, the unbound plasmid was washed off using the TF buffer and the Promega Diamond dye was added to T10 buffer (10 mM Tris-HCl (pH 8.0), 1 mM EDTA) solution. After 15 min the solution […]
Two inhibitor concentrations of 100 and 1 μM were used for pre-screening. The IC 50 values […]
(IC50) was calculated by nonlinear regression-based fitting of the inhibition curves using the log [inhibitor] versus response-variable slope (four parameters) – symmetrical equation, in GraphPad Prism 6.0 software (GraphPad Software, CA, USA). The IC50 value represents the average of two independent measurements.
The minimum inhibitory concentrations (MICs) were determined using the broth micro-dilution method in 96-well plate format according to the Clinical and Laboratory Standards Institute

S. aureus topoIV = biological target: T2, S. aureus topoIV (Staphylococcus aureus, UniProt Q2FYS4); assay: TopoIV decatenation inhibition assay (S. aureus); type: biochemical; details: read-out: IC50 TopoIV S. aureus, mean of two independent measurements ± SD
T2 construct: purchased Inspiralis (Norwich, UK)

Human topoisomerase IIα = Human topoisomerase IIα (Homo sapiens, UniProt P11388); assay: Human topoisomerase IIα residual activity; type: biochemical; details: read-out: Human topoisomerase IIα (%RA)
E. coli (ATCC 25922) [9] = assay: microbe, parasite or virus in culture; details: Escherichia coli, ATCC25922, read-out: MIC E. coli (ATCC 25922)
Experimental: (§1) The in vitro antibacterial activity, expressed as minimum inhibitory concentration (MIC), was determined against broad spectrum of bacteria, including Gram-positive (Staphylococcus aureus, methicillin-resistant Staphylococcus aureus, Streptococcus agalactiae, and Enterococcus faecalis) and Gram-negative strains (Escherichia coli, Salmonella alachua, Pseudomonas aeruginosa, and Klebsiella pneumoniae), enriched with various MRSA strains resistant to various antibiotics as well as E. coli strains with increased membrane permeability and lack of efflux pump, as well. […]
(§2) The minimum inhibitory concentrations (MICs) were determined using the broth micro-dilution method in 96-well plate format according to the Clinical and Laboratory Standards Institute […]
(§3) guidelines8 and European Committee on Antimicrobial Susceptibility Testing recommendations9. The bacterial suspension of the specific bacterial strain equivalent to the 0.5 McFarland turbidity standard was diluted with cation-adapted Mueller Hinton broth with TES (Thermo Fisher Scientific) to obtain a […]
(§4) The compounds dissolved in DMSO and inoculum were mixed together and incubated for 20 h at 35 °C.

E. coli D22 [10] = assay: microbe, parasite or virus in culture; details: Escherichia coli
Experimental: as §1, §2, §3, §4

[11] = system: E. coli N43 (CGSC no. 5583); assay: microbe, parasite or virus in culture; details: Escherichia coli
Experimental: as §1, §2, §3, §4

[12] = system: Enterococcus faecalis DRK 057 (ATCC 29212); assay: microbe, parasite or virus in culture
Experimental: as §1, §2, §3, §4

Klebsiella pneumoniae = assay: microbe, parasite or virus in culture
Experimental: as §1, §2, §3, §4

MRSA (QA-11.7) [13] = assay: microbe, parasite or virus in culture; details: Staphylococcus aureus, read-out: MIC MRSA (QA-11.7)
Experimental: as §1, §2, §3, §4

MRSA (QA-12.1) = assay: microbe, parasite or virus in culture; details: Staphylococcus aureus, read-out: MIC MRSA (QA-12.1)
Experimental: as §1, §2, §3, §4

[14] = system: Pseudomonas aeruginosa RDK 184 (DSM 939); assay: microbe, parasite or virus in culture
Experimental: as §1, §2, §3, §4

S. aureus (ATCC 29213) [15] = assay: microbe, parasite or virus in culture; details: Staphylococcus aureus, ATCC29213, read-out: MIC S. aureus (ATCC 29213)
Experimental: as §1, §2, §3, §4

[16] = system: Salmonella alachua RDK 030c (QA-1482/04); assay: microbe, parasite or virus in culture
Experimental: as §1, §2, §3, §4

[17] = system: Streptococcus agalactiae RDK 047 (QA-990/02); assay: microbe, parasite or virus in culture
Experimental: as §1, §2, §3, §4

[18] = read-out: MIC E. coli N43 (CGSC no. 5583)
[19] = read-out: MIC E. coli N43 (CGSC# 5583)
[20] = ATCC29212, read-out: MIC E. faecalis DRK 057 (ATCC 29212)
[21] = ATCC29212, read-out: MIC Enterococcus faecalis DRK 057 (ATCC 29212)
[22] = read-out: MIC Klebsiella pneumoniae
[23] = DSM939, read-out: MIC P. aeruginosa RDK 184 (DSM 939)
[24] = DSM939, read-out: MIC Pseudomonas aeruginosa RDK 184 (DSM 939)
[25] = read-out: MIC S. alachua RDK 030c (QA-1482/04)
[26] = read-out: MIC Salmonella alachua RDK 030c (QA-1482/04)
[27] = read-out: MIC S. agalactiae RDK 047 (QA-990/02)
[28] = read-out: MIC Streptococcus agalactiae RDK 047 (QA-990/02)

T1 sequence (P20831 whole entry, looked up): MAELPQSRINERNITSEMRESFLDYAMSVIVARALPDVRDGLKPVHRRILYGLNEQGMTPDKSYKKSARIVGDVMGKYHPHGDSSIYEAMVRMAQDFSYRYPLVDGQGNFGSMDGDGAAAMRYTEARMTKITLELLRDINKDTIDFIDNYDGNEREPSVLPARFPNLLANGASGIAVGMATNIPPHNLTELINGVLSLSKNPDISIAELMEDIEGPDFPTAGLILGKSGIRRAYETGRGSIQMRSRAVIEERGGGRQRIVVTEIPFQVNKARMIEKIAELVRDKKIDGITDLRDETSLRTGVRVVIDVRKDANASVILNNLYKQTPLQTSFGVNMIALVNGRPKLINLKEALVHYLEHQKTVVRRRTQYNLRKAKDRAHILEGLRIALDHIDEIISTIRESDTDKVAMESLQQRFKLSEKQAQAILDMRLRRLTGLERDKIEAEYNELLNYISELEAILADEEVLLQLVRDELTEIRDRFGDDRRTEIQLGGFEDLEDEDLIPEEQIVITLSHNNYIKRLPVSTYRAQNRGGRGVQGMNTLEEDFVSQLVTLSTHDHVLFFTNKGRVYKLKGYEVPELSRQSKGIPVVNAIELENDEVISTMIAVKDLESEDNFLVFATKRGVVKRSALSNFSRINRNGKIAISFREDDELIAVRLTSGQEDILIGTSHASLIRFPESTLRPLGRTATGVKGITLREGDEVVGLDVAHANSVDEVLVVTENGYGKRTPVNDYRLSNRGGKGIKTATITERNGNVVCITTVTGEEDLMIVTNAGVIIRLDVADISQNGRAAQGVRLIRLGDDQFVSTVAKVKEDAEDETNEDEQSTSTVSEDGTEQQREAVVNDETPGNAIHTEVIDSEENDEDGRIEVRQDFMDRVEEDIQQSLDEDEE
Chain of Human topoisomerase IIα (P11388 whole entry): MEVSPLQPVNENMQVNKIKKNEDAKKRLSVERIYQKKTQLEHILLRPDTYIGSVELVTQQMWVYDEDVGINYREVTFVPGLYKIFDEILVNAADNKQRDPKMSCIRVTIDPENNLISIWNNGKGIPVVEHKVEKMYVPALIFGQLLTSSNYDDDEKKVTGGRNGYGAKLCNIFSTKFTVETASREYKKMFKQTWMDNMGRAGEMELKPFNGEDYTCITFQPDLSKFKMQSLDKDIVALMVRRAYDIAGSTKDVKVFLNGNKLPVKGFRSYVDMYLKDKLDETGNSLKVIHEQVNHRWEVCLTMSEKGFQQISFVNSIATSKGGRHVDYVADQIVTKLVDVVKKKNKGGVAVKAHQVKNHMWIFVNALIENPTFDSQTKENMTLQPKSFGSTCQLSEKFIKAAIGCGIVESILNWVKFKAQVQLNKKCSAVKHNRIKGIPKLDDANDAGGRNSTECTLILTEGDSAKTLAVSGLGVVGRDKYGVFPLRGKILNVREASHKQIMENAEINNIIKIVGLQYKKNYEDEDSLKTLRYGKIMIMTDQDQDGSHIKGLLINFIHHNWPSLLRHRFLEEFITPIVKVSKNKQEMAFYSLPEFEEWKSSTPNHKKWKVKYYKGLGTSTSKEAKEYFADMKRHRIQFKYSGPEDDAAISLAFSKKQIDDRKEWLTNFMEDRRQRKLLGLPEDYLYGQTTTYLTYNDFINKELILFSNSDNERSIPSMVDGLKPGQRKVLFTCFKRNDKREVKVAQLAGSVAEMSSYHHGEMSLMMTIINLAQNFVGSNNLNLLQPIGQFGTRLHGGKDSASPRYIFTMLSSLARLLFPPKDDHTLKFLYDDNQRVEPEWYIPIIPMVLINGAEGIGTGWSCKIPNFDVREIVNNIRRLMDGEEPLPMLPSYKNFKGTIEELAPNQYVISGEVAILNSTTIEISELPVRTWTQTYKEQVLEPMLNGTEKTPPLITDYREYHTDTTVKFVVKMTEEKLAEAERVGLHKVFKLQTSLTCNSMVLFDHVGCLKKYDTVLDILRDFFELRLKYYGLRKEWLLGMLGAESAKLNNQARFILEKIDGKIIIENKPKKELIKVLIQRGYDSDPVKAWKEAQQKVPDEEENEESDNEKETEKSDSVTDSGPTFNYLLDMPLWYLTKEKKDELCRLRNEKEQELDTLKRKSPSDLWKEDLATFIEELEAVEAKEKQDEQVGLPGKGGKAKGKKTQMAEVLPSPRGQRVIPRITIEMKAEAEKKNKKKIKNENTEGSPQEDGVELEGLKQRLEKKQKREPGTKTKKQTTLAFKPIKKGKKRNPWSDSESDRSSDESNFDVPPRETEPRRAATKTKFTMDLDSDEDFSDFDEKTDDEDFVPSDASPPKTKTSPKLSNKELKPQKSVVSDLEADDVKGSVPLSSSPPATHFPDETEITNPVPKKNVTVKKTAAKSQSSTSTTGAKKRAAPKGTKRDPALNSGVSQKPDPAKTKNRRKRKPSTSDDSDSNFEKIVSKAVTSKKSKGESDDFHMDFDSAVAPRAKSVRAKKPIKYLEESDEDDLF
T2 sequence (Q2FYS4 whole entry, looked up): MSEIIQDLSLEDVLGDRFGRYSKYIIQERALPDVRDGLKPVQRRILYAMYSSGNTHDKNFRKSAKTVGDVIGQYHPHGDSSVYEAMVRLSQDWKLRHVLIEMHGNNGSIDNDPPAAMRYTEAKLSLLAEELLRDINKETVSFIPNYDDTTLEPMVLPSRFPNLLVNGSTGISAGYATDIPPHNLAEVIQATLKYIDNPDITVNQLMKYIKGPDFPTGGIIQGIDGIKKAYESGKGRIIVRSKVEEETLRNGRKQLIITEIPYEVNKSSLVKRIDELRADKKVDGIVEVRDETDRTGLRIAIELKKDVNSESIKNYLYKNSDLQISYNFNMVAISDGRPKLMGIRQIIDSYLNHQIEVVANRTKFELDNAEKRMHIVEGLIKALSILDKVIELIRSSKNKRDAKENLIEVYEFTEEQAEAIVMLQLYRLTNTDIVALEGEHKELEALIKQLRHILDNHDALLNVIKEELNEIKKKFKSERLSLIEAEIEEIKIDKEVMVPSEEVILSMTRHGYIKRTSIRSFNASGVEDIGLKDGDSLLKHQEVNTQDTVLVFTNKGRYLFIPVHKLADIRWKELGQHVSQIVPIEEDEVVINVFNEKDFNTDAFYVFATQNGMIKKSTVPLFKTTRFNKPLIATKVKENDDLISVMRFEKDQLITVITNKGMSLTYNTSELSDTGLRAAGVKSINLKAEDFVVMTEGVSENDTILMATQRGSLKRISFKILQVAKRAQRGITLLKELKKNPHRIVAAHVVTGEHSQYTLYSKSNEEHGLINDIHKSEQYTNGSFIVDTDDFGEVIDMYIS

Structure (SMILES)	IC50 (S. aureus DNA gyrase)	MIC (E. coli (ATCC 25922) [9])	MIC (E. coli D22 [10]; D22, read-out: MIC E. coli D2)	MIC (E. coli D22 [10]; D22, read-out: MIC E. coli D22)	MIC [11, 18]	MIC [11, 19]	MIC [12, 20]	MIC [12, 21]	MIC (Klebsiella pneumoniae; read-out: MIC K. pneumoniae)	MIC (Klebsiella pneumoniae; [22])	MIC (MRSA (QA-11.7) [13])	MIC (MRSA (QA-12.1))	MIC [14, 23]	MIC [14, 24]	MIC (S. aureus (ATCC 29213) [15])	MIC [16, 25]	MIC [16, 26]	MIC [17, 27]	MIC [17, 28]	further results
COc1ccc2nccc(CCN3CCC(NCc4ccc(I)cc4)CC3)c2n1 [Compound 3]	–	–	–	–	–	–	–	–	–	–	–	–	–	–	–	–	–	–	–	MIC S. aureus (ATCC 29213) (S. aureus (ATCC 29213) [1]): 0.016 µM (≈ 0.00804 µg/mL); MIC E. coli (ATCC 25922) (E. coli (ATCC 25922) [2]): 3.98 µM (≈ 2 µg/mL); MIC E. coli D2 (E. coli D22 [3]): 0.249 µM (≈ 0.125 µg/mL); MIC E. coli N43 (CGSC# 5583) [4]: 0.155 µM (≈ 0.0779 µg/mL); MIC MRSA (QA-11.7) (MRSA (QA-11.7) [5]): 0.016 µM (≈ 0.00804 µg/mL); MIC S. alachua RDK 030c (QA-1482/04) [6]: 15.9 µM (≈ 7.99 µg/mL); MIC P. aeruginosa RDK 184 (DSM 939) [7]: 63.7 µM (≈ 32 µg/mL); MIC S. agalactiae RDK 047 (QA-990/02) [8]: 0.249 µM (≈ 0.125 µg/mL)
COc1ccc2nccc(CCN3CCC(NCc4ccc(I)c(F)c4)CC3)c2n1 [Compound 6]	4 nM	0.961 µM and 0.5 µg/mL	0.119 µM	0.062 µg/mL	0.016 µg/mL	0.031 µM	0.48 µM	0.25 µg/mL	15.4 µM	8 µg/mL	0.031 µM and 0.016 µg/mL	0.031 µM and 0.016 µg/mL	30.7 µM	16 µg/mL	0.015 µM and 0.008 µg/mL	3.84 µM	2 µg/mL	0.48 µM	0.25 µg/mL	IC50 (S. aureus topoIV): 90 ± 102 nM; remaining activity at 10 µM (Human topoisomerase IIα): 97.7 ± 1.31%
COc1ccc2nccc(CCN3CCC(NCc4ccc(Cl)cn4)CC3)c2n1 [Compound 13]	123 ± 19 nM	77.7 µM and 32 µg/mL	38.8 µM	16 µg/mL	8 µg/mL	19.4 µM	9.71 µM	4 µg/mL	> 311 µM	> 128 µg/mL	0.607 µM and 0.25 µg/mL	0.607 µM and 0.25 µg/mL	> 311 µM	> 128 µg/mL	0.303 µM and 0.125 µg/mL	> 311 µM	> 128 µg/mL	19.4 µM	8 µg/mL	remaining activity at 10 µM (Human topoisomerase IIα; residual activity at 10 μM compound, mean ± SD, two independent experiments): 99.36 ± 0.34%
